Experimental data: patent US20170027973A1, “MODULARION OF INVARIANT NATURAL KILLER T CELLS IN THE TREATMENT OF SEPSIS” (LONDON HEALTH SCIENCES CENTRE RESEARCH INC., priority 2014, published 2017)

Key:
[1] = test system: surface TCR of iNKT cells; conditions: after 24 hours; cited from earlier work
invariant TCR = conditions: OCH compared to KRN7000; cited from earlier work
Jα18−/− mice with IAS = experiment: IAS model in iNKT-deficient Jα18−/− mice: murine sepsis score; type: in vivo, mouse
Protocol: FIG. 4: Th2-polarizing glycolipid OCH reduces disease severity in IAS. C57BL/6 (B6) mice were concomitantly injected i.p. with fecal slurry (FS; 500 μL of 90 mg/mL solution) to induce intra-abdominal sepsis (IAS), and vehicle, OCH, or KRN7000. […] (c) iNKT-deficient Jα18−/− mice were given FS (500 μL of a 90 mg/mL solution) to induce IAS and concomitantly treated with OCH or vehicle. Murine sepsis scores were similar between vehicle and OCH-treated mice (n=3 per group). […] The percentages of T cells remained unchanged with administration of iNKT-specific glycolipid agonists (n=6, n=4, n=6, and n=3 for vehicle, OCH, Vehicle (KRN7000) and KRN7000 groups respectively). *p<0.05, **p<0.01 by Mann-Whitney U test. (d) Bacterial counts in blood and multiple organs were similar between vehicle-, OCH-, and KRN7000-treated mice with sepsis (n=7-9 per group). Data are representative of at least three independent experiments.
Stool from the cecum of euthanized naïve B6 mice was expressed through an enterotomy, homogenized, and suspended in 0.9% normal saline (NS) to produce a fecal slurry at a final concentration of 90 mg/mL, for use in experiments on the same day. […] The mice were monitored and scored by two independent investigators—one of whom was blinded to the treatment—every 2-3 hours for the first 12 hours, and then every 1-2 hours thereafter. […]

Row | SMILES | potency at down-regulating the TCR relative to OCH [1] | binding affinity for the invariant TCR (invariant TCR) | disease severity (MSS) versus vehicle (Jα18−/− mice with IAS)
1 | CCCCCCCCCCCCCCCCCCCCCCCCCC(=O)N[C@@H](CO[C@H]1O[C@H](CO)[C@H](O)[C@H](O)[C@H]1O)[C@H](O)[C@H](O)CCCCCCCCCCCCCC [KRN7000, reference compound] | approximately 10 fold | – | –
2 | CCCCCCCCCCCCCCCCCCCCCCCC(=O)N[C@@H](COC1OC(CO)C(O)C(O)C1O)[C@H](O)[C@H](O)CCCCC (stereo partly drawn) [OCH] | – | lower | did not observe any differences
